Test results from patent publication US20090065745A1, “ANTI-DEGRADATION AGENT” (priority 2005, published 2009).

Assay: Measurement of dynamic hydration number (relaxation time T1)
Assay type: physicochemical
Conditions: at 25° C., in water
Text: First, the concept of the “dynamic hydration number” used in the present invention is explained. It is considered that the initial reaction of deterioration is caused at an “interface”, i.e., any of interfaces between gas and liquid, between liquid and solid and between liquid and liquid. In the case of almost all of foods, it is considered that the initial reaction of deterioration thereof is caused at an interface between oil and water. Here, if consideration is mainly made on the case where a configuration of the food is an aqueous system, water is generally classified into two types, i.e., liberated water and combined water. It is considered that among these waters, the liberated water frequently constitutes a factor relating to the initial reaction of deterioration.
The control of the liberated water can be realized by constraining a free motion of water molecules. The “dynamic hydration number” of the compound is an index showing a degree of constraint of free motion of water when the compound is dissolved in water. […] The dynamic hydration number of the compound may be readily measured, for example, by the following method.
25.0 mg of p-hydroxybenzoic acid was dissolved in pure water, and pure water was further added the resultant solution to obtain 50 mL of a solution (blank). The blank was added to samples used in amounts of 1.008 g and 1.512 g, respectively, to prepare sample solutions 1 and 2 having total weights of 4.013 g and 3.001 g, respectively. Using a spectrophotometer “Inova 500” manufactured by Varian Corp., the relaxation time (T1) of the respective sample solutions was measured at 25° C. to determine a dynamic hydration number thereof.

Compound | Dynamic hydration number (nDHN)
O=C(CO)[C@@H](O)[C@H](O)[C@H](O)CO [Fructose] | 16.5
NCCCC[C@H](N)C(=O)O [Lysine] | 3.0
OC[C@H]1O[C@@](CO)(O[C@H]2O[C@H](CO)[C@@H](O)[C@H](O)[C@H]2O)[C@@H](O)[C@@H]1O [Sucrose] | 15.0
CC(C)[C@H](N)C(=O)O [Valine] | 21.0
O=C[C@H](O)[C@@H](O)[C@H](O)CO [Xylose] | 15.5
Maltotriol | 211
Maltotriose | 204

Assay: Solubility in hexane (oil solubility)
Assay type: physicochemical
Conditions: at 30° C.
Text: However, the solubility in triglyceride of the compound varies depending upon constitutional fatty acids of the triglyceride. Therefore, in the present invention, the oil insolubility and oil solubility of the compound is defined by a solubility thereof in hexane.

Compound | Oil solubility class (solubility in hexane) | Solubility in hexane [mg/mL]
tocopherol [Vitamin E (tocopherol)] | Oil-soluble (oil-soluble antioxidant having a solubility in 1 L of hexane of not less than 50 g as measured at 30° C.) | >500
